# Patent publication US9226503B2, “Composition and method for attraction of emerald ash borer Agrilus planipennis fairmaire (coleoptera: buprestidae)” (Her Majesty the Queen in Right of Canada, as represented by …, priority 2011, dated 2016)
# Columns and labels:
# A. planipennis [1] = conditions: Silk et al. 2009; cited from earlier work
# A. planipennis antennae = test: EAG dose-response study; parameters: species or system Agrilus planipennis; conditions: 1 μg applied dose; n=80, 15 antennal preparations
# Description: EAG analyses were made by methods and equipment generally described by Cossé & and Bartelt (2000). EAG connections were made by inserting a glass-pipette silver-grounding electrode into the back of an excised beetle head. A second glass-pipette silver-recording probe was placed in contact with the distal end of one antenna. Both pipettes were filled with Beadle-Ephrussi (Ephrussi and Beadle 1936) saline.
# For the EAG-dose-response study, (3Z)- and (3E)-lactones were purified (99.9% purity by GC/MS) by high performance liquid chromatography (HPLC) using a Waters 515 pump, a Waters R401 refractive index detector, and a 25 cm by 0.46 cm i.d. silica column (Adsorbosphere Silica 5 μm, Alltech, Deerfield, Ill.), treated with silver nitrate as described by Heath and Sonnett (1980). Solvent was 8% ether in hexane. Ten micro liters of serially diluted solutions (methylene chloride) of synthetic (3Z)-lactone and (3E)-lactone were applied to filter paper strips (0.5 cm×5 cm, Whatman no. 1). The filter paper strips were placed in 14-cm-long Pasteur pipettes, hereafter referred to as stimulus cartridges, after 5 min at room temperature. Stimulus doses tested were 0.01, 0.1, 1, 10, and 100 μg. Male and female antennae were exposed to single 0.2s puffs of odor-bearing air at 5 ml/s by placing the tip of an stimulus cartridge into a hole of a glass tube (0.7 cm ID×20 cm), 10 cm from the outlet and 11 cm away from the antennal preparation. Airflow through the glass tube was humidified and set at 10 ml/s. Puff duration and airflow speeds were maintained by a stimulus flow controller (SFC-2, Syntech, Hilversum, The Netherlands). Stimuli cartridges were selected in random order, beginning with the lowest dosages and working upward to the highest dosages. Each puffed dosage was preceded and followed by a puff from a solvent blank cartridge (filter paper plus solvent). To compensate for possible deterioration of the antennal preparation, a standard control compound, geranyl acetone (1 μg dose) preceded dosages of stimuli compound. EAG amplitudes were normalized according to the responses to geranyl acetone by dividing the amplitude of the EAG generated by the test compounds by that of geranyl acetone. Dose-response series were replicated, using different antennal preparation for each replication, and the EAG responses were expressed as a percentage of the EAG responses to geranyl acetone. Each antennal preparation was tested with freshly prepared sets of stimuli cartridges. Male and female EAG responses were submitted to analysis of variance (ANOVA) using Statistica for Windows software (StatSoft Inc. Tulsa, Okla.)).
# A. planipennis [2] = conditions: background, cited studies; cited from earlier work
# A. planipennis [3] = test: Two-choice Y-tube olfactometer assay; format: in vivo, Agrilus planipennis; conditions: (3Z)-hexenol 5 μg
# Procedure: A Y-tube olfactometer (Analytical Research Systems Inc, Gainsville, Fla.) was used to test for attraction of A. planipennis to lactone isomers and host volatiles. […] Each arm was connected to a cylinder that contained the stimulus. Charcoal filtered air was passed into each arm at a flow rate of 1.2 L/min. Treatments included the pheromone alone: (3Z)-lactone (10 μg); (3E)-lactone (10 μg); and 60:40 (3E):(3Z)-lactone (10 μg). Next, we tested bark sesquiterpenes and a green leaf volatile alone: Phoebe oil (25 μg and 2.5 μg) and (3Z)-hexenol (5 μg). We then tested the pheromone combined with bark sesquiterpenes: (3Z)-lactone (10 μg)+Phoebe oil (at both 25 μg and 2.5 μg); (3E)-lactone (10 μg)+Phoebe oil (at both 25 μg and 2.5 μg). Finally, we tested the pheromone combined with the green leaf volatile: (3Z)-lactone (10 μg)+(3Z)-hexenol (5 μg); and (3E)-lactone (10 μg)+(3Z)-hexenol (5 μg). Each stimulus (l μl for single compound treatments and a total of 2 μl for two-compound treatments) was diluted in hexane, placed on a strip of filter paper and given one minute for the solvent to evaporate before being placed in the olfactometer. A second filter paper, treated with the equivalent volume of solvent was placed in the other arm of the olfactometer to serve as the control. The apparatus was rinsed with acetone after each treatment, and the arm attached to the test stimulus was randomized between replicates.
# For each treatment, we tested increasing numbers of adults until we obtained a minimum of 12 beetles responding to the stimuli (either positively or negatively). To obtain this minimum, we tested 15-54 beetles per treatment. For each trial, a single A. planipennis (mature virgin male or female, >10 days old) was given ten minutes to choose between the two stimuli; adults were used only once in the bioassay. […] A chi-square test was conducted for each independent trial.
# A. planipennis [4] = test: Field trapping 2011 experiment 2: (3Z)-lactone, (3Z)-hexenol and trap height factorial, dark green traps; format: in vivo, Agrilus planipennis; conditions: 2×2×2 factorial, lactone 3 mg/lure
# Procedure: Two trapping experiments were conducted in green and white ash plantations (F. pennsylvanica Marsch and F. americana L.) located 40-60 km southeast of Sarnia, Ontario in 2011. Trees were 20-30 yr old, 5-8 m tall, 12-18 cm in diameter, and spaced 2-3 m apart within and between rows. Five sites were used in total: four were green ash and the fifth was a white ash plantation. Trees at four of the sites generally appeared healthy with few or no signs of decline and only a few with obvious signs and symptoms of infestation by A. planipennis. At the fifth site, obvious crown decline and signs of infestation were apparent on about one-quarter of trees.
# Green prism sticky traps (0.30 cm×35.00 cm×58.75 cm) (Synergy Semiochemicals Corp., Burnaby, BC) were used in all field trials, deployed using modified umbrella rig spreaders (Zing Products, Westport, Mass.). Traps were spaced 20-25 m apart and lure treatments replicated in randomized complete block designs. Traps were deployed either using ropes tied between two trees or using a single line over a canopy branch, as described further below for each specific experimental objective. Traps were typically checked every 2 wk and A. planipennis were collected, counted, and sexed.
# Experiment 2 was a 2×2×2 factorial experiment designed to test the effects of (3Z)-lactone, (3Z)-hexenol, trap height, and their interactions on numbers of A. planipennis captured on sticky, dark green (540-nm wavelength) (Francese et al 2010a) prism traps. Traps were baited with either (3Z)-lactone, (3Z)-hexenol, (3Z)-lactone+(3Z)-hexenol, or neither compound (unbaited control) and all treatments were deployed both below the canopy or in the mid-canopy. Traps placed below the canopy were suspended from ropes tied between two trees so the trap was 1-1.5 m from either tree and the top of the trap was 1.5-2 m above the ground. Traps in the canopy were deployed from a single line looped over a mid-canopy branch such that traps were 1-1.5 m from the main stem and their tops were 6 m above ground. (3Z)-Lactone was loaded onto rubber septa lures at a dosage of 3 mg/lure. Release rates of the (3Z)-lactone and (3Z)-hexenol were 60-70 μg/day and 50-100 mg/day, respectively at 25° C. Traps were in the field from 8 June-5 August, with one block at one site (Nauvoo Ranch), 5 blocks at a second site (LaSalle, the one white ash plantation), and 4 blocks at a third site (Brook Line). The 3 mg (3Z)-lactone lures were estimated to maintain adequate release rates for a minimum of three weeks and thus were replaced after three weeks; (3Z)-hexenol lures were not replaced during the experiment.
# Numbers of A. planipennis captured in the trapping experiments were subjected to ANOVA separately for males and females. […]
# [5] = females, low dose of Phoebe oil
smiles,measurement,setting,value
CCCCCCCCCCCCCCCCC(C)CCCCCCCC (centres unmarked) [9-methylpentacosane],copulatory activity in males upon antennal contact (literature),A. planipennis [1],stimulates full copulatory activity in males
"CC(=O)CC/C=C(\C)CCC=C(C)C [geranyl acetone, reference compound]",mean EAG response of antennae to standard (±SD),A. planipennis antennae,−0.06±0.03 mV
CC/C=C\CCO [(3Z)-hexenol],attractiveness to A. planipennis (literature),A. planipennis [2],highly antennally active and attractive to males
same,attraction of females in Y-tube olfactometer vs hexane control,A. planipennis [3]; [5],slightly attracted
same,females responded in Y-tube olfactometer,A. planipennis [3]; [5],75%
same,attraction of males in Y-tube olfactometer vs hexane control,"A. planipennis [3]; males, lactone 10 μg, chi-square test",highly attracted
same,"mean capture of males per trap, effect of presence of the lure component",A. planipennis [4],significantly and positively affected
same,"mean catch of females, effect of the lure component",A. planipennis [4],not
